Source: ChEMBL document CHEMBL3603812, “Biarylsulfonamide CCR9 inhibitors for inflammatory bowel disease” (Bioorg Med Chem Lett, 2015)
In brackets after ≈: the same amount, converted by molar mass.

Legend:
[1] = target: T1, C-C chemokine receptor type 9 (Homo sapiens, UniProt P51686)
T1 sequence (P51686 whole entry): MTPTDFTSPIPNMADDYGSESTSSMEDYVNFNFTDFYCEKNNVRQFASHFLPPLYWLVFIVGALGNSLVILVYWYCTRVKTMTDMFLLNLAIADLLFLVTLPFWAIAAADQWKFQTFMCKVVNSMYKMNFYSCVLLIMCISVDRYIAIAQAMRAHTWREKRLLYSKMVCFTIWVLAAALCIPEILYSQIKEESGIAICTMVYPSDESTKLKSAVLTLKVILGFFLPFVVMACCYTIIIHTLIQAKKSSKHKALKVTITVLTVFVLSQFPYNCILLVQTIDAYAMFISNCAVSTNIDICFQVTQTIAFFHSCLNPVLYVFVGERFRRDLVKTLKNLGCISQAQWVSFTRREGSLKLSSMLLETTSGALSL
Description: Antagonist activity at CCR9 receptor (unknown origin) assessed as inhibition of TECK-induced calcium mobilization incubated for 10 mins prior to TECK induction

[2] = Oral bioavailability in mouse; type: ADME, organism-based; conditions: in vivo
[3] = Solubility of the compound at pH 9; type: physicochemical; conditions: buffer
[4] = Volume of distribution at steady state in iv dosed mouse; type: ADME, organism-based; conditions: in vivo, read-out: Vdss
[5] = Clearance in iv dosed mouse; type: ADME, organism-based; conditions: in vivo
[6] = Clearance in mouse liver microsomes; type: ADME; conditions: read-out: CLH
[7] = Terminal half life in iv and po dosed mouse; type: ADME, organism-based; conditions: in vivo, read-out: beta t1/2 (converted)
Mus musculus = experiment: Dose normalized AUC in iv dosed mouse; type: ADME, organism-based; conditions: in vivo
[8] = Plasma protein binding in human; type: ADME, cell-free; conditions: read-out: PPB (converted)
[9] = Solubility of the compound at pH 7.4; type: physicochemical; conditions: buffer
[10] = Lipophilicity, log D of the compound; type: physicochemical; conditions: octanol/water

Row | SMILES | IC50 [1] | further results
1 | CC(C)(C)c1ccc(S(=O)(=O)Nc2ccc(Cl)cc2-c2nccc(C(N)=O)c2O)cc1 | 52 nM | –
2 | CNc1cnc(-c2cc(Cl)ccc2NS(=O)(=O)c2ccc(C(C)(C)C)cc2)c(NCCO)n1 | 1010 nM | –
3 | CCNc1nccnc1-c1cc(Cl)ccc1NS(=O)(=O)c1ccc(C(C)(C)C)cc1 | 421 nM | –
4 | CC(C)(C)c1ccc(S(=O)(=O)Nc2ccc(Cl)cc2-c2nccnc2NCCCO)cc1 | 614 nM | –
5 | Cc1cnc(-c2cc(Cl)ccc2NS(=O)(=O)c2ccc(C(C)(C)C)cc2)c(NCCO)n1 | 268 nM | –
6 | CC(C)(C)c1ccc(S(=O)(=O)Nc2ccc(Cl)cc2-c2ncccc2O)cc1 | 29 nM | –
7 | CC(C)(C)c1ccc(S(=O)(=O)Nc2ccc(Cl)cc2-c2ncnc(CO)c2O)cc1 | 11 nM | –
8 | CN(C)CCNc1nccnc1-c1cc(Cl)ccc1NS(=O)(=O)c1ccc(C(C)(C)C)cc1 | 3600 nM | –
9 | CC(C)(C)c1ccc(S(=O)(=O)Nc2ccc(Cl)cc2-c2ccccn2)cc1 | > 10000 nM | –
10 | COc1cccnc1-c1cc(Cl)ccc1NS(=O)(=O)c1ccc(C(C)(C)C)cc1 | 958 nM | –
11 | CC(C)(C)c1ccc(S(=O)(=O)Nc2ccc(Cl)cc2-c2ncnc(N)c2O)cc1 | 14 nM | –
12 | CC(C)(C)c1ccc(S(=O)(=O)Nc2ccc(Cl)cc2-c2nncc(N3CCOCC3)c2N)cc1 | 26 nM | –
13 | CCc1ncnc(-c2cc(Cl)ccc2NS(=O)(=O)c2ccc(C(C)(C)C)cc2)c1O | 6 nM | –
14 | CN(C)c1ncnc(-c2cc(Cl)ccc2NS(=O)(=O)c2ccc(C(C)(C)C)cc2)c1O | 9 nM | –
15 | CNc1ncc(O)c(-c2cc(Cl)ccc2NS(=O)(=O)c2ccc(C(C)(C)C)cc2)n1 | 27 nM | –
16 | CC(C)(C)c1ccc(S(=O)(=O)Nc2ccc(Cl)cc2-c2ncccc2CO)cc1 | 89 nM | –
17 | CC(C)(C)c1ccc(S(=O)(=O)Nc2ccc(Cl)cc2-c2nnccc2N)cc1 | 3.8 nM | –

Row | SMILES | IC50 [1] | further results
18 | CC(C)(C)c1ccc(S(=O)(=O)Nc2ccc(Cl)cc2-c2nccnc2NCCO)cc1 | 34 nM | bioavailability [2]: 38%; solubility [3]: 1100 µg/mL (≈ 2390 µM); Vd [4]: 1.1 L/kg; clearance [5]: 26 mL/min/kg; CLint scaled [6]: 49 mL/min/kg; half-life [7]: 1.2 h; AUC/dose (Mus musculus): 0.65 µg·h/mL/mg/kg; fraction unbound [8]: 0.016; solubility [9]: 240 µg/mL (≈ 521 µM)
19 | CC(C)(C)c1ccc(S(=O)(=O)Nc2ccc(Cl)cc2C(=O)c2cc[n+]([O-])cc2)cc1 [VERCIRNON] | – | bioavailability [2]: 10%; solubility [3]: 51 µg/mL (≈ 115 µM); Vd [4]: 0.83 L/kg; logD [10]: 3.7; clearance [5]: 33 mL/min/kg; CLint scaled [6]: 147 mL/min/kg; half-life [7]: 1.3 h; AUC/dose (Mus musculus): 0.56 µg·h/mL/mg/kg; fraction unbound [8]: 0.009; solubility [9]: 1.2 µg/mL (≈ 2.7 µM)
20 | COCc1cccnc1-c1cc(Cl)ccc1NS(=O)(=O)c1ccc(C(C)(C)C)cc1 | 3480 nM | –
21 | CC(C)(C)c1ccc(S(=O)(=O)Nc2ccc(Cl)cc2-c2nc(N)ncc2O)cc1 | 4 nM | –
22 | CC(C)(C)c1ccc(S(=O)(=O)Nc2ccc(Cl)cc2-c2ncccc2CN)cc1 | 3160 nM | –
23 | CC(C)(C)c1ccc(S(=O)(=O)Nc2ccc(Cl)cc2-c2nc(Cl)cnc2NCCO)cc1 | 715 nM | –
24 | CC(C)(C)c1ccc(S(=O)(=O)Nc2ccc(Cl)cc2-c2nccnc2NCC(=O)O)cc1 | 812 nM | –
25 | CC(C)(C)c1ccc(S(=O)(=O)Nc2ccc(Cl)cc2-c2ncccc2N)cc1 | 95 nM | –
26 | COc1ccnc(-c2cc(Cl)ccc2NS(=O)(=O)c2ccc(C(C)(C)C)cc2)c1 | 2500 nM | –
27 | CC(C)(C)c1ccc(S(=O)(=O)Nc2ccc(Cl)cc2-c2ncccn2)cc1 | 0.3 nM | –
28 | CC(C)(C)c1ccc(S(=O)(=O)Nc2ccc(Cl)cc2-c2c(O)ccc[n+]2[O-])cc1 | 491 nM | –
29 | CC(C)(C)c1ccc(S(=O)(=O)Nc2ccc(Cl)cc2-c2nccc(CO)c2O)cc1 | 8.7 nM | –
30 | CC(C)(C)c1ccc(S(=O)(=O)Nc2ccc(Cl)cc2-c2nccnc2N)cc1 | 3.2 nM | –
31 | CC(C)(C)c1ccc(S(=O)(=O)Nc2ccc(Cl)cc2-c2ncncc2N)cc1 | 3.2 nM | –
32 | CC(C)(C)c1ccc(S(=O)(=O)Nc2ccc(Cl)cc2-c2ncncc2O)cc1 | 11 nM | –
33 | CC(C)(C)c1ccc(S(=O)(=O)Nc2ccc(Cl)cc2-c2nc(NCCO)ncc2O)cc1 | 214 nM | –
34 | CNc1nccnc1-c1cc(Cl)ccc1NS(=O)(=O)c1ccc(C(C)(C)C)cc1 | 25 nM | –
